We go through 91 molecules from a melting point compilation (Tetko et al.; mined from patent text by program, amines drawn as free bases though some values may be those of a salt).

Turning to `O=C(Cc1ccc(Oc2ccccc2)cc1)NCCC1=CCCCC1`, the melting point was 74 to 75 °C. Take `CNC(=O)N(C)C(=O)Nc1ccccc1`: the melting point lay in the range of 93 to 95 °C.

Regarding `CN(C)CCc1c[nH]c2ccc(Oc3ccc(Br)cc3)cc12`, the melting point is 160 to 162 °C. The molecule `CC1(C)Oc2ccc(C(=O)CCC(=O)O)cc2NC1=O` came in with a melting point of 226 to 228 °C. `CN1CCN(c2ccccc2CC2CCN(c3ccc(F)c(F)c3)C2=O)CC1` (stereo unspecified) registered a melting point of 130 to 131 °C. Molecule `Cn1nnnc1C=C(c1ccccc1)c1ccccc1` showed a melting point of 147 to 148 °C.

`CN1c2ccccc2-c2nc3ccc(/C=C/C(N)=O)cc3c3cccc1c23` showed a melting point of 284 to 286 °C. In turn, `COc1cccc(OC)c1C(=O)NC(=S)NNC(=O)c1ccc(Cl)cc1` returned a melting point of 206 to 208 °C. Consider `CC(NC(=O)OCc1ccccc1)C(=O)N1C(C(=O)O)CC2CCCCC21` (stereo unspecified), for which the melting point came to 58.6 °C. `Cc1cc(CCNc2ncnc3c(F)ccc(F)c23)ccc1Oc1cc(C(F)(F)F)ccn1` gave a melting point of 108 to 110 °C. In the case of `FC(F)(F)c1nnnn1-c1ccc(C2=NOC(c3cc(Cl)cc(Cl)c3)(C(F)(F)F)C2)cc1` (stereo unspecified) it was 147 to 151 °C; in that of `CCCCc1c(-c2cc(C)c(O)c(C)c2)[nH]c2ccccc12`, 83.1 to 84.2 °C; in that of `CCC1(OC)CCc2c(C)c(O)c(C)c(C)c2O1` (stereo unspecified), 96.5 to 98.5 °C. On to `COC(=O)c1cnc2c3cc(NC(=O)CCC4CCCC4)ccc3ncn2c1=O`, for which the melting point is 244 to 247 °C. To `Cc1nsc(NC(=O)C(C)c2ccc(O)c(N)c2)c1Cl` (stereo unspecified) belongs 222 to 223 °C. To `O=C(O)c1ccc(OCC(O)c2cc3cc(Cl)ccc3o2)cc1` (stereo unspecified) belongs 157 to 159 °C. Consider `CCCc1ccc2c(c1)C1(O)C(=O)c3ccccc3C1(O)O2` (stereo unspecified), for which the melting point was 126 to 127 °C.

In turn, `O=C/C=C/C=C/c1ccc(OCC(F)(F)C(F)F)nc1` showed a melting point of 88 to 89 °C. For `O=C(O)c1c(-c2cnccn2)ssc1=S`, the melting point was 225 °C. `O=C1CCC(N2C(=O)c3cccc(NC(=O)CCCCCNC(=O)OCc4ccccc4)c3C2=O)C(=O)N1` (stereo unspecified) showed a melting point of 122 to 125 °C. To `O=C(O)[C@H]1Oc2ccc(Cl)cc2[C@@H](c2ccccc2)O1` (relative stereo) belongs 175 °C; to `O=C(NC(=O)c1ccccc1Cl)Nc1ccc(F)c(C(F)(F)F)c1Cl`, 208 °C. For `NC(=O)Nc1ccc2oc([N+](=O)[O-])c(-c3ccccc3)c2c1`, the melting point lay in the range of 230 to 232 °C. Molecule `Cc1ccccc1OCCCc1oc(-n2ccnc2C)nc1-c1ccc(Cl)cc1` showed a melting point of 111 to 112 °C.

Turning to `CC1(C)CC(=O)C(C(=O)NS(=O)(=O)c2ccccc2)C(=O)C1`, the melting point lay in the range of 101 to 103 °C. To `CCCC(=O)Nc1n[nH]c2cc(-c3ccc(OCc4ccccc4)cc3)c(-c3ccc(OCc4ccccc4)cc3)cc12` belongs 140 °C. As for `CCOCc1nc2c(N)nc3ccccc3c2n1Cc1ccccc1`, the melting point fell in the range of 204 to 205 °C.

The molecule `CC(=O)C1CCC2C3CCC4CC(O)CCC4(C)C3=CCC12C` (stereo unspecified) had a melting point of 160 to 161 °C. Molecule `Nc1cccc2cncc(Br)c12` returned a melting point of 155 °C. Take `Cc1noc(C)c1-c1ccncc1OC1SCC(O)C(O)C1O` (stereo unspecified): the melting point lay within 175 to 179 °C. Take `CC1(C)NC(=O)C(C)(C)N1O`: the melting point lay in the range of 240 to 245 °C.

The molecule `COC(=O)n1nc(Oc2c(F)cc(C(F)(F)F)cc2Cl)cc1C` yielded a melting point of 123 to 125 °C. To `CC(C)S(=O)(=O)n1cc(-c2ccc(Oc3ccccc3)cc2)c2c(N)ncnc21` belongs 162 °C; to `Nc1nccc(C=Cc2ccc([N+](=O)[O-])cc2)n1`, 214 to 216 °C; to `CN1C(=O)[C@H](NC(=O)/C=C/c2ccc(I)cc2)N=C(c2ccccc2)c2ccccc21`, 137 to 140 °C. Consider `N#CN1c2ccccc2CC(O)c2ccccc21` (stereo unspecified), for which the melting point is 117 to 118 °C.

The molecule `CSC1=C([N+](=O)[O-])CCCN1` registered a melting point of 230 to 232 °C. Turning to `OC1CSC(Oc2cnccc2-c2ccc(F)cc2)C(O)C1O` (stereo unspecified), the melting point was determined as 219 °C.

On to `c1ccc(CN2CCC(c3cc(-c4ccccc4)[nH]n3)CC2)cc1`, for which the melting point fell in the range of 130 to 131 °C. In the case of `CCn1cc(C2(c3cccc(Br)c3)N=C(N)N(C)C2=O)cc1C=O` (stereo unspecified) it was 194 to 195 °C; in that of `COc1cc(C2CCN(C)CC2)ccc1-c1nc2c(N[C@H]3[C@@H](C(N)=O)[C@@H]4C=C[C@H]3C4)c(Cl)cnc2[nH]1`, 232 to 235 °C; in that of `CCCCOC(=O)N[C@@H](CC(N)=O)C(=O)N[C@@H](Cc1ccccc1)[C@H](O)C(=O)N1CCC[C@H]1C(=O)NC(C)(C)C`, 61 to 65 °C.

Turning to `O=[N+]([O-])c1ccc(C2CCNCC2)cc1`, the melting point fell in the range of 90 to 92 °C. As for `O=Cc1c(Cl)ccc(Br)c1F`, the melting point was 92 to 93 °C. Molecule `O=C(OCCC1CC1)c1ncn2c1[C@@H]1CCCN1C(=O)c1c(Cl)cccc1-2` yielded a melting point of 163 to 164 °C. Regarding `Cc1oc(-c2ccccc2)nc1COc1ccc(/C=C/CO)cc1C(F)(F)F`, the melting point was in the range of 152 to 153 °C. As for `CS(=O)c1[nH]ccc1[N+](=O)[O-]` (stereo unspecified), the melting point was in the range of 162 to 164 °C.

Take `CCc1c(-c2ccc(OCc3ccccc3)cc2)cn2cccc(CO)c12`: the melting point was 144 to 145 °C. Molecule `CC(=N)Nc1cccc(Br)c1` displayed a melting point of 208 to 210 °C.

As for `CC(C)S(=O)(=O)c1ccc(Oc2ccc(Cl)c(Cl)c2)nc1`, the melting point was in the range of 91 to 92 °C. For the molecule `O=C(c1ccc(O)c(Cl)c1)c1ccc(Cl)cc1Cl`, the melting point was 145 °C. Take `CCCc1ccc(OC)c(-c2csc(N)n2)c1`: the melting point worked out at 84 °C. To `CCOC(=O)C(=CNc1ccnn1Cc1ccco1)C(=O)OCC` belongs 84 to 86 °C. For the molecule `CN1CCCC(C2=C(C#N)C(c3cccc4nonc34)c3c[nH]nc3N2)C1` (stereo unspecified), the melting point came out at 228 °C. To `CCCN(CCC)[C@@H]1Cc2c(Br)ccc3c2[C@@H](C1)CN3C(=O)c1ccccc1` belongs 93 °C; to `Cn1cc(C(=O)NCc2ccc(Cl)cc2)c(=O)c2cc(COCC(=O)c3ccccc3)sc21`, 209 °C; to `Cc1ccc(S(=O)(=O)OCC2Cc3cc(F)cc(Br)c3O2)cc1` (stereo unspecified), 84 to 86 °C. To `CCOC(=O)c1cnc2sc(S(=O)(=O)Cc3ccccc3)nn2c1=O` belongs 200 to 203 °C; to `CCOC[C@H]1CN(c2ccc(OCc3ccccc3)cc2)C(=O)O1`, 92 °C; to `O=c1c2cc(F)ccc2nc(NCc2ccccc2F)n1-c1ccccc1Cl`, 163 to 165 °C. As to `COc1cc(OCc2ccccn2)ccc1/C=C/c1cc(/C=C/c2ccc3ccn(C(C)=O)c3c2)n[nH]1`, the melting point is 182 to 187 °C.

Take `CCCCCCOc1ccc(-c2nc(-c3ccc(OCCCCCC)cc3O)nc(-c3ccc(OCCCCCC)cc3O)n2)c(O)c1`: the melting point is 125 to 127 °C.

With `O=C(O)COc1ccc(SCc2ccccc2OCc2ccc(C(F)(F)F)cc2)c2c1CCC2`, the melting point lay within 150 to 152 °C.

On to `Cc1ccccc1C(=O)Oc1cc(O)ccn1`, for which the melting point is 116 to 119 °C.

Molecule `COc1ccc(C2(C#Cc3csc(C(=O)O)c3)CCC(=O)CC2)cc1OC1CCCC1` gave a melting point of 80 to 82 °C. In turn, `COc1ccc(Cn2c(C(=O)O)c(-c3ccc4c(c3)OCO4)c3ccccc32)c(OCC(=O)O)c1` returned a melting point of 195 to 196 °C. The molecule `Clc1ccc(-c2cc(Cl)n3nccc3n2)cc1` yielded a melting point of 133 to 135 °C. Molecule `CCOC(=O)C1=CC(=NO)CC(c2ccc(Cl)cc2F)N1` (stereo unspecified) displayed a melting point of 124 to 126 °C. For the molecule `CC(=O)OCC1=C(C(=O)OC(C)(C)C)N2C(=O)C(NC(=O)CC3=CSCCS3)C2SC1` (stereo unspecified), the melting point is 80 °C. The molecule `BrCCCCCCCOc1ccc2c(c1)OCO2` had a melting point of 45 to 47 °C.

`CSc1nn2c(O)cc(C)nc2c1S(=O)(=O)c1ccc(C(C)C)cc1` showed a melting point of 183 to 184 °C. For the molecule `Cc1cccc(Cl)c1CNC(=O)C(C)Br` (stereo unspecified), the melting point was in the range of 168 to 169 °C. To `CSC(=C[N+](=O)[O-])NCCCOc1cccc(CN2CCCCC2)c1` belongs 68 to 69.5 °C. In the case of `Cc1cncc(C)c1-c1c(C)cc(I)cc1C` it was 242 to 243 °C; in that of `O=C1N(Cc2nnc(C(F)(F)F)o2)c2ccccc2C12COc1cc3c(cc12)OCCO3` (stereo unspecified), 137 to 139 °C; in that of `Cn1cc(-c2ccccc2[N+](=O)[O-])cn1`, 41 to 44 °C. Consider `CC(=O)OC1CSC(Oc2cc(F)cnc2C#N)C(OC(C)=O)C1OC(C)=O` (stereo unspecified), for which the melting point was 150 °C. Consider `COc1cc(/C=C\c2cnc(N)nc2N)cc(OC)c1OC`, for which the melting point lay within 175 to 177 °C. In the case of `O=C(O)C(Oc1ccc(Cl)cc1)(C(F)(F)F)C(F)(F)F` it was 81 to 83 °C; in that of `CC(C)n1c(=O)n(C(=O)NC2CCN(C)CC2)c2ccccc21`, 204 to 205 °C; in that of `CC(C)(C)OC(=O)Cn1c(C(=O)OCc2ccccc2)cc2ccccc21`, 95 to 96 °C. As for `CCn1cc(C(=O)O)c(=O)c2ccc(I)cc21`, the melting point lay within 237 to 238 °C. For `O=C1C(=O)N(Cc2ccc(O)cc2)c2ccc(S(=O)(=O)N3CCCC3COc3cccnc3)cc21` (stereo unspecified), the melting point fell in the range of 127 to 129 °C. In the case of `O=c1ccc2ccc(OCCCCN3CCN(c4cccc5cc(Cl)ccc45)CC3)nc2[nH]1` it was 208 to 209 °C.

As to `CC(C)(C#N)CNC(=O)c1nn(C2CCCCO2)cc1NC(=O)c1ccccn1` (stereo unspecified), the melting point lay in the range of 138 to 140 °C. Consider `CC(=O)Oc1cccc(CCNC(=O)/C=C/c2cccnc2)c1`, for which the melting point was found to be 99 °C.

In turn, `CC1(C)Oc2ccc([N+](=O)[O-])cc2O1` returned a melting point of 89 to 91 °C.

With `Cc1cccc(OC2=NS(=O)(=O)N=C(N)N2C(C)C)c1`, the melting point is 56 to 58 °C. `CS(=O)(=O)CC(N)C1(c2ccc(Cl)cc2)CCC1` (stereo unspecified): the melting point lay in the range of 134 to 135 °C. To `COC(=O)c1cc(OC)ccc1N(CC#N)c1ccccc1` belongs 107 to 109 °C; to `CCCC=Cc1c(C(C)C)nc(C(C)C)c(C(=O)OCC)c1-c1ccc(C)cc1`, 74 to 77 °C.

Usually melting point stands for the temperature of the solid-liquid transition.
